The compounds below were run against USP30 (Homo sapiens (Human), UniProt Q70CQ3) (assay: USP30 Biochemical IC50 Assay). Details: fluorescence polarisation, TAMRA labelled peptide linked to ubiquitin as substrate.
Description: Dilution plates were prepared at 21 times the final concentration (2100 μM for a final concentration of 100 μM) in 50% DMSO in a 96-well polypropylene V-bottom plate (Greiner #651201). A typical 8-point dilution series would be 100, 30, 10, 3, 1, 0.3, 0.1, 0.03 μM final. Reactions were performed in duplicate in black 384 well plates (small volume, Greiner 784076) in a final reaction volume of 21 μl. Either 1 μl of 50% DMSO or diluted compound was added to the plate. USP30 was diluted in reaction buffer (40 mM Tris, pH 7.5, 0.005% Tween 20, 0.5 mg/ml BSA, 5 mM beta-mercaptoethanol) to the equivalent of 0.05 μl/well and 10 μl of diluted USP30 was added to the compound. Enzyme and compound were incubated for 30 min at room temp. Reactions were initiated by the addition of 50 nM of TAMRA labelled peptide linked to ubiquitin via an iso-peptide bond as fluorescence polarisation substrate. Reactions were read immediately after addition of substrate and following a 2-hour incubation at room temperature. Readings were performed on a Pherastar Plus (BMG Labtech). λ Excitation 540 nm; λ Emission 590 nm.

USP30, sequence (Q70CQ3 whole entry): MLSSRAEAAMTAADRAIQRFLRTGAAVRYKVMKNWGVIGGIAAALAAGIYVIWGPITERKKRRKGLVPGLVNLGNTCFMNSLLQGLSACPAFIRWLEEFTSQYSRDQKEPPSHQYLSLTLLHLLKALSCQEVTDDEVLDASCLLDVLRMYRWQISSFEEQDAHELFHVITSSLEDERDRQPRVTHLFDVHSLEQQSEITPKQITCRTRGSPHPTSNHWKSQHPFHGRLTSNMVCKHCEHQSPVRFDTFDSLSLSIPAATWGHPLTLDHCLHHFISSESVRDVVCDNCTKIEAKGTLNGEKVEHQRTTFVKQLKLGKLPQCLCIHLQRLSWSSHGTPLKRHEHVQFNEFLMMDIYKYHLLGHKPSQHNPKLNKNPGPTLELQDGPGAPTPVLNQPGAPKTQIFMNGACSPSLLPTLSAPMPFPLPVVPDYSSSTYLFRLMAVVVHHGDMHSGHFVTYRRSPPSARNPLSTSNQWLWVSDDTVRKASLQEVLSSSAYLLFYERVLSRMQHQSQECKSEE

`C[C@@H]1[C@H](CNC(=O)c2ncn(-c3cccc(C#N)c3)n2)CCN1C#N` (mixture of isomers) [Example 4, N-(((2R,3R)-1-cyano-2-methylpyrrolidin-3-yl)methyl)-1-(3-cyanophenyl)-1H-1,2,4-triazole-3-carboxamide and N-(((2R,3S)-1-cyano-2-methylpyrrolidin-3-yl)methyl)-1-(3-cyanophenyl)-1H-1,2,4-triazole-3-carboxamide] and `CN(C[C@H]1CCN(C#N)C1)C(=O)c1ncn(-c2cccc(C#N)c2)n1` [Example 2, (S)-1-(3-cyanophenyl)-N-((1-cyanopyrrolidin-3-yl)methyl)-N-methyl-1H-1,2,4-triazole-3-carboxamide] fall in the same range of IC50: 10 to 100 nM for the first, 10 to 100 nM for the second.

First: N#Cc1cccc(-n2cc(C(=O)NC[C@H]3CCN(C#N)C3)nn2)c1 [Example 5, (R)-1-(3-cyanophenyl)-N((1-cyanopyrrolidin-3-yl)methyl)-1H-1,2,3-triazole-4-carboxamide]
Second: N#CN1CC[C@H](CNC(=O)c2cnn(-c3cccc(Cl)c3)n2)C1 [Example 7, (R)-2-(3-chlorophenyl)-N-((1-cyanopyrrolidin-3-yl)methyl)-2H-1,2,3-triazole-4-carboxamide]
The IC50 of the first is higher: 100 to 1000 nM for the first, under 10 nM for the second. The second is the more potent here.

From patent US11059809B2, “Substituted cyanopyrrolidines with activity as DUB inhibitors” (MISSION THERAPEUTICS LIMITED, priority 2017, dated 2021)
